The results in this text go back to ChEMBL document CHEMBL1208678, “Synthesis of some new 4(3H)-quinazolinone-2-carboxaldehyde thiosemicarbazones and their metal complexes and a study on their anticonvulsant, analgesic, cytotoxic and antimicrobial activities - part-1” (Eur J Med Chem, 2010).

Converted amounts (≈) assume the structure as drawn. The source made the active and inactive calls. The rule behind the calls is not given here.

Data set [1] concerns Mus musculus. The experiment in a line: Acute toxicity in mouse assessed as mortality up to 1200 mg/kg, po. It counts as organism-based. More on the design: dose 1200 mg/kg, route oral. The settings on record: in vivo.
The subject of data set [2] is Rattus norvegicus. The experiment in a line: Anticonvulsant activity against pentylenetetrazole-induced seizure in Wistar rat assessed as duration of seizure at 50 mg/kg, ip administered 45 mins before pentylenetetrazole challenge (reference value: 312 seconds). The data set is classed as functional. The settings on record: route intraperitoneal.
Data set [3] deals with Fusarium oxysporum. The experiment in a line: Antifungal activity against Fusarium oxysporum at 100 ug after 24 hrs by paper disc method. The settings on record: for zone of inhibition at 100 µg/disc: read-out: IZ. It counts as functional.
The subject of data set [4] is Mus musculus. In words: Analgesic activity in Swiss albino mouse assessed as reaction time at 50 mg/kg, ip after 0.5 hrs by hotplate method (reference value: 7.4 seconds). The data set is classed as functional. The settings on record: route intraperitoneal.
Data set [5] in a line: Cytotoxicity against mouse EAC cells assessed as cell death at 25 ug/ml after 2 hrs by Trypan blue exclusion method. It counts as functional, Ehrlich.
The next data set relates to Pseudomonas aeruginosa. The experiment in a line: Antibacterial activity against Pseudomonas aeruginosa ATCC 9027 at 100 ug after 24 hrs by paper disc method. The conditions noted are these: ATCC 9027, 24 h, read-out: IZ. The data set is classed as functional.
Data set [6] in a line: Cytotoxicity against mouse EAC cells assessed as cell death at 50 ug/ml after 2 hrs by Trypan blue exclusion method. It counts as functional, Ehrlich.
Data set [7] has as its system Rattus norvegicus. In words: Anticonvulsant activity in Wistar rat assessed as protection against pentylenetetrazole-induced seizure at 50 mg/kg, ip administered 45 mins before pentylenetetrazole challenge. It counts as functional, organism-based. Set-up: dose 50 mg/kg.
Data set [8] is described as follows: Cytotoxicity against mouse EAC cells assessed as cell death at 100 ug/ml after 2 hrs by Trypan blue exclusion method. It counts as functional, Ehrlich.
The subject of data set [9] is Staphylococcus aureus. The experiment in a line: Antibacterial activity against Staphylococcus aureus ATCC 6538 at 100 ug after 24 hrs by paper disc method. The data set is classed as functional. The settings on record: ATCC 6538, 24 h, read-out: IZ.
The test system of data set [10] is Rattus norvegicus. The experiment in a line: Anticonvulsant activity against pentylenetetrazole-induced seizure in Wistar rat assessed as shock latency time at 50 mg/kg, ip administered 45 mins before pentylenetetrazole challenge (reference value: 118 seconds). It counts as functional. The settings on record: route intraperitoneal.
Data set [11] deals with Mus musculus. The experiment in a line: Analgesic activity in Swiss albino mouse assessed as reaction time at 50 mg/kg, ip after 1 hr by hotplate method (reference value: 7.5 seconds). It counts as functional. The settings on record: route intraperitoneal.
In data set [12] the test system is Escherichia coli. In words: Antibacterial activity against Escherichia coli ATCC 7839 at 100 ug after 24 hrs by paper disc method. The data set is classed as functional. The settings on record: ATCC 7839, 24 h, read-out: IZ.
The test system of data set [13] is Bacillus subtilis. The experiment in a line: Antibacterial activity against Bacillus subtilis ATCC 6633 at 100 ug after 24 hrs by paper disc method. The conditions noted are these: ATCC 6633, 24 h, read-out: IZ. It counts as functional.
A further data set relates to Aspergillus ochraceus. In words: Antifungal activity against Aspergillus ochraceus Wilhelm at 100 ug after 24 hrs by paper disc method. The data set is classed as functional. The conditions noted are these: for zone of inhibition at 100 µg/disc: read-out: IZ.
For data set [14], the system named is Escherichia coli. In words: Antibacterial activity against Escherichia coli ATCC 7839 after 24 hrs by twofold serial dilution method. The conditions noted are these: ATCC 7839, 24 h. The data set is classed as functional.
In data set [15] the test system is Staphylococcus aureus. In words: Antibacterial activity against Staphylococcus aureus ATCC 6538 after 24 hrs by twofold serial dilution method. The settings on record: ATCC 6538, 24 h. The data set is classed as functional.
Data set [16] concerns Bacillus subtilis. In words: Antibacterial activity against Bacillus subtilis ATCC 6633 after 24 hrs by twofold serial dilution method. It counts as functional. The settings on record: ATCC 6633, 24 h.
In data set [17] the test system is Fusarium oxysporum. The experiment in a line: […] activity against Fusarium oxysporum after 24 hrs by twofold serial dilution method. It counts as functional.
The subject of data set [18] is Mus musculus. In words: Analgesic activity in Swiss albino mouse assessed as reaction time at 2 mg/kg, ip after 1 hr by hotplate method (reference value: 7.5 seconds). The conditions noted are these: route intraperitoneal. The data set is classed as functional.
The test system of data set [19] is Rattus norvegicus. The experiment in a line: Anticonvulsant activity against pentylenetetrazole-induced seizure in Wistar rat assessed as shock latency time at 2 mg/kg, ip administered 45 mins before pentylenetetrazole challenge (reference value: 118 seconds). The data set is classed as functional. The conditions noted are these: route intraperitoneal.
In data set [20] the test system is Mus musculus. The experiment in a line: Analgesic activity in Swiss albino mouse assessed as reaction time at 2 mg/kg, ip after 0.5 hrs by hotplate method (reference value: 7.4 seconds). The data set is classed as functional. The conditions noted are these: route intraperitoneal.
Data set [21] deals with Rattus norvegicus. The experiment in a line: Anticonvulsant activity against pentylenetetrazole-induced seizure in Wistar rat assessed as duration of seizure at 2 mg/kg, ip administered 45 mins before pentylenetetrazole challenge (reference value: 312 seconds). It counts as functional. The conditions noted are these: route intraperitoneal.
The test system of data set [22] is Rattus norvegicus. In words: Anticonvulsant activity in Wistar rat assessed as protection against pentylenetetrazole-induced seizure at 2 mg/kg, ip administered 45 mins before pentylenetetrazole challenge. More on the design: dose 2 mg/kg. It counts as functional, organism-based.

Turning to `O=c1c2cc(I)ccc2nc(/C=N/NC(=S)Nc2ccccc2)n1-c1ccc(F)cc1`, the Activity result with Mus musculus [1] was “Non-toxic”; in data set [5], 0%; in [6], 0%; in [8] it was 0%. Further, the Time in the data set on Rattus norvegicus [2] came out at 350 s; in the data set with Mus musculus [4], 8 s; in the data set on Rattus norvegicus [10], 120 s; in the data set on Mus musculus [11] it was 13.5 s. Also, the zone of inhibition at 100 µg/disc amounted to 25 mm in the data set on Fusarium oxysporum [3]; 0 mm in the data set with Pseudomonas aeruginosa; 0 mm in the data set with Staphylococcus aureus [9]; 8 mm with Escherichia coli [12]; 0 mm in the data set with Bacillus subtilis [13]; 0 mm with Aspergillus ochraceus. In the data set on Rattus norvegicus [7], the outcome was inactive.

By MIC is commonly meant the lowest concentration that inhibits growth of the organism. Read a low MIC as greater potency. As to `NC(=S)N/N=C/c1nc2ccc(I)cc2c(=O)n1-c1ccccc1`, the Activity result with Mus musculus [1] is “Non-toxic”. The zone of inhibition at 100 µg/disc with Fusarium oxysporum [3] was 23 mm; in the data set with Pseudomonas aeruginosa it was 0 mm; with Staphylococcus aureus [9] it was 8 mm; with Escherichia coli [12] it was 0 mm; in the data set on Bacillus subtilis [13], 9 mm; with Aspergillus ochraceus, 0 mm. Further, the Time in the data set on Mus musculus [4] is reported as 18.6 s; in the data set with Mus musculus [11], 26.6 s. Further, the MIC came out at 100 µg/mL (≈ 223 µM) in the data set with Escherichia coli [14], 100 µg/mL (≈ 223 µM) against Staphylococcus aureus [15], 100 µg/mL (≈ 223 µM) in the data set on Bacillus subtilis [16] and 12.5 µg/mL (≈ 27.8 µM) against Fusarium oxysporum [17].

Take `CCNC(=S)N/N=C/c1nc2ccc(I)cc2c(=O)n1-c1ccc(F)cc1`: in the data set with Mus musculus [1], the Activity result is on record as “Non-toxic”. Besides, the Time in the data set with Rattus norvegicus [2] was 520 s; in the data set on Rattus norvegicus [10], 280 s. Besides, in the data set on Rattus norvegicus [7], the result was inactive.

`CCNC(=S)N/N=C/c1nc2ccc(I)cc2c(=O)n1-c1ccccc1`: the Activity entry in the data set with Mus musculus [1] is listed as “Non-toxic”. For the same compound, the zone of inhibition at 100 µg/disc in the data set on Fusarium oxysporum [3] was 15 mm; in the data set with Pseudomonas aeruginosa, 0 mm; with Staphylococcus aureus [9], 0 mm; in the data set with Escherichia coli [12], 0 mm; in the data set on Bacillus subtilis [13] it was 0 mm; with Aspergillus ochraceus it was 0 mm.

With `CNC(=S)N/N=C/c1nc2ccc(I)cc2c(=O)n1-c1ccccc1`, the Activity result in the data set on Mus musculus [1] is listed as “Non-toxic”. Besides, the MIC in the data set on Fusarium oxysporum [17] is 6 µg/mL (≈ 13 µM).

Turning to `CC[C@H]1OC(=O)[C@H](C)[C@@H](O[C@H]2C[C@@](C)(OC)[C@@H](O)[C@H](C)O2)[C@H](C)[C@@H](O[C@@H]2O[C@H](C)C[C@H](N(C)C)[C@H]2O)[C@](C)(O)C[C@@H](C)C(=O)[C@H](C)[C@@H](O)[C@]1(C)O` [ERYTHROMYCIN], the zone of inhibition at 100 µg/disc was 16 mm with Pseudomonas aeruginosa, 15 mm in the data set on Escherichia coli [12] and 30 mm with Bacillus subtilis [13].

Take `O=c1c2cc(I)ccc2nc(/C=N/NC(=S)Nc2ccccc2)n1-c1ccccc1`: the Activity entry with Mus musculus [1] is reported as “Non-toxic”. Further, the Time with Mus musculus [4] came out at 10.2 s; in the data set on Mus musculus [11], 19.2 s.

For the compound NYSTATIN, the figures for the inhibition zone (IZ) in the data set with Fusarium oxysporum [3] and with Aspergillus ochraceus were 20 mm and 12 mm, respectively.

On to `CN1C(=O)CN=C(c2ccccc2)c2cc(Cl)ccc21` [DIAZEPAM], for which the Time in the data set with Mus musculus [18] was 65.9 s; in the data set with Rattus norvegicus [19], 3600 s; with Mus musculus [20], 62.9 s; in the data set on Rattus norvegicus [21], 0 s. For the same compound, in the data set with Rattus norvegicus [22], the outcome was Active.

For the compound `CNC(=S)N/N=C/c1nc2ccc(I)cc2c(=O)n1-c1ccc(F)cc1`, the Activity entry with Mus musculus [1] was “Non-toxic”; in [5] it was 0%; in data set [6], 0%; in [8] it was 20%. For the same compound, the Time with Rattus norvegicus [2] was 580 s; in the data set on Mus musculus [4] it was 11.1 s; in the data set with Rattus norvegicus [10], 380 s; in the data set on Mus musculus [11] it was 19.2 s. Further, in the data set on Rattus norvegicus [7], the result was inactive.

Turning to `NC(=S)N/N=C/c1nc2ccc(I)cc2c(=O)n1-c1ccc(F)cc1`, the Activity result with Mus musculus [1] is “Non-toxic”; in data set [5], 0%; in data set [6], 10%; in data set [8], 40%. Besides, the Time in the data set on Rattus norvegicus [2] stood at 760 s; with Mus musculus [4], 19.2 s; in the data set with Rattus norvegicus [10], 660 s; with Mus musculus [11], 27.2 s. Moreover, the outcome in the data set with Rattus norvegicus [7] was inactive. In addition, inhibition of growth in the data set with Fusarium oxysporum [17] (MIC) required 12.5 µg/mL (≈ 26.8 µM).

Turning to `CCn1cc(C(=O)O)c(=O)c2cc(F)c(N3CCNCC3)cc21` [NORFLOXACIN], the zone of inhibition at 100 µg/disc was determined as 15 mm in the data set on Pseudomonas aeruginosa, 27 mm in the data set on Staphylococcus aureus [9], 17 mm in the data set with Escherichia coli [12] and 35 mm with Bacillus subtilis [13].
